Test results as given in patent publication US20110082161A1, “POWDERS FOR RECONSTITUTION” (priority 2008, published 2011).

Key:
[1] = background statement; cited from earlier work
[2] = Safety and tolerability in Phase I single-dose trial; assay type: in vivo, human healthy subjects; conditions: single doses of 200 mg TMC125, healthy subjects
Text: No clinically relevant safety issues were identified with respect to the parameters studied, including AEs, laboratory and cardiovascular safety, and physical and skin examinations.

Cc1cc(C#N)cc(C)c1Oc1nc(Nc2ccc(C#N)cc2)nc(N)c1Br [TMC125, 4-[[6-amino-5-bromo-2-[(4-cyanophenyl)amino]-4-pyrimidinyl]oxy]-3,5-dimethylbenzonitrile]
solubility in aqueous media [1]: very insoluble | safety and tolerability (AEs, laboratory, cardiovascular, physical and skin examinations) [2]: generally safe and well tolerated
